Source: patent US20250163104A1, “MACROCYCLIC IMMUNOMODULATORS” (priority 2021, published 2025)
pIC50: −log10 of the molar value. Where a SMILES comes first, the peptide text is derived from it. Bridges are numbered along the chain shown (N, C = ends). [ ]: non-standard residue; d: D form. The star is where a group is joined. ξ: configuration not given here. Bip(4'-COOH) = N[C@@H](Cc1ccc(-c2ccc(C(=O)O)cc2)cc1)C(=O)O; Phe(3-CF3) = N[C@@H](Cc1cccc(C(F)(F)F)c1)C(=O)O; Ala(morpholin-4-yl) = N[C@@H](CN1CCOCC1)C(=O)O; Phe(4-COOH) = N[C@@H](Cc1ccc(C(=O)O)cc1)C(=O)O; Tyr(Ph) = N[C@@H](Cc1ccc(Oc2ccccc2)cc1)C(=O)O; Bip = N[C@@H](Cc1ccc(-c2ccccc2)cc1)C(=O)O; Cha = N[C@@H](CC1CCCCC1)C(=O)O; Cit = NC(=O)NCCC[C@H](N)C(=O)O; Carboxymethyl = O=C(O)C*; Orn = NCCC[C@H](N)C(=O)O; Dab = NCC[C@H](N)C(=O)O; Dap = NC[C@H](N)C(=O)O; ξOrn = NCCCC(N)C(=O)O

Biological target: T1, human PD-1 / PD-L1-Ig binding on Jurkat cell line over-expressing human PD-1 (Jurkat-PD-1) (Homo sapiens, UniProt Q15116)
T1 construct: expressed in transfected cells; host or cells: Jurkat
Assay: Jurkat-PD-1 Cell Binding High-Content Screening Assay (CBA)
Assay type: cell-based
Conditions: Jurkat-PD-1 cells, PE-labeled PD-L1-Ig 20 nM final; read-out: Jurkat HPD1_PDL1 IC50
Outline: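 Compounds were preincubated with Jurkat-hPD-1 cells in DMEM plus 10% fetal calf serum for 2 h at 37° C. Phycoerythrin-labeled PD-L1-Ig (20 nM final) was then added for 1 hour. Cells were fixed in 4% paraformaldehyde with Hoechst 33342, and bound fluorescence was quantified by high-content imaging.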

T1 sequence (Q15116 25-288): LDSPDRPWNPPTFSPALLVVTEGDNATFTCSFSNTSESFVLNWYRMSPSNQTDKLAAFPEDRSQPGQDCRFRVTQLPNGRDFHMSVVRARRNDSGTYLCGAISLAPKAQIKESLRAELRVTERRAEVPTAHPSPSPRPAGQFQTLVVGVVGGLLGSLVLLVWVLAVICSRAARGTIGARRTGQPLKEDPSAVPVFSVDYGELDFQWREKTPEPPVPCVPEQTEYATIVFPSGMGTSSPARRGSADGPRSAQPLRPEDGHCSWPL

`CC(C)C[C@H]1NC(=O)[C@H](CCCN)NC(=O)[C@H](CCCNC(N)=O)NC(=O)[C@H](Cc2ccc(-c3ccccc3)cc2)NC(=O)[C@H](C(C)C)NC(=O)[C@H](Cc2c[nH]c3ccccc23)NC(=O)[C@H](CC(=O)O)NC(=O)[C@H](Cc2ccc(-c3ccc(C(=O)O)cc3)cc2)NC(=O)[C@H](CN)NC(=O)CSC[C@@H](C(=O)N[C@@H](C)C(N)=O)NC(=O)[C@H]([C@@H](C)O)NC(=O)[C@H](C(C)C)NC(=O)[C@H](CC2CCCCC2)NC(=O)[C@H](CCN)NC1=O` [Compound 2089] ({CH2CO}-[Dap][Bip(4'-COOH)]DWV[Bip][Cit][Orn][dL][Dab][Cha]VTCA-NH2; thioether N-14) was tested. Which pIC50 did it give?
The pIC50 was 8.08.

`CC(C)C[C@H]1NC(=O)[C@H](CCCN)NC(=O)[C@H](Cc2ccc(C(=O)O)cc2)NC(=O)[C@H](Cc2ccc(-c3ccccc3)cc2)NC(=O)[C@H](Cc2ccc(Oc3ccccc3)cc2)NC(=O)[C@H](Cc2cccc(C(F)(F)F)c2)NC(=O)[C@H](CC(=O)O)NC(=O)[C@H](Cc2ccc(C(=O)O)cc2)NC(=O)[C@H](CN2CCOCC2)NC(=O)CSC[C@@H](C(=O)N[C@@H](CCN)C(N)=O)NC(=O)[C@H](CCC(=O)O)NC(=O)[C@H](C(C)C)NC(=O)[C@H](CC2CCCCC2)NC(=O)[C@H](CCN)NC1=O` [Example 2730] ({CH2CO}-[Ala(morpholin-4-yl)][Phe(4-COOH)]D[Phe(3-CF3)][Tyr(Ph)][Bip][Phe(4-COOH)][Orn][dL][Dab][Cha]VEC[Dab]-NH2; thioether N-14) was tested. Which pIC50 did it give?
Its pIC50 is 7.03.

How did the pIC50 turn out when `CC[C@H](C)[C@@H]1NC(=O)[C@H](CC2CCCCC2)NC(=O)[C@H](CCN)NC(=O)[C@@H](CC(C)C)NC(=O)[C@H](CCCN)NC(=O)[C@H](CCCNC(N)=O)NC(=O)[C@H](Cc2ccc(-c3ccccc3)cc2)NC(=O)[C@H](C(C)C)NC(=O)[C@H](Cc2c[nH]c3ccccc23)NC(=O)[C@H](CC(=O)O)NC(=O)[C@H](Cc2ccc(OCC(=O)O)cc2)NC(=O)[C@H](CN)NC(=O)CSC[C@@H](C(=O)N[C@@H](C)C(N)=O)NC(=O)[C@H]([C@@H](C)O)NC1=O` [Compound 1314] ({CH2CO}-[Dap]Y(Carboxymethyl)DWV[Bip][Cit][Orn][dL][Dab][Cha]ITCA-NH2; thioether N-14) was run?
The pIC50 was 8.05.

With `CC(C)C[C@H]1NC(=O)C(CCCN)NC(=O)[C@H](CCCNC(N)=O)NC(=O)[C@H](Cc2ccc(-c3ccccc3)cc2)NC(=O)[C@H](C(C)C)NC(=O)[C@H](Cc2c[nH]c3ccccc23)NC(=O)[C@H](CC(=O)O)NC(=O)[C@H](Cc2ccc(C(=O)O)cc2)NC(=O)[C@H](CN)NC(=O)CSC[C@@H](C(=O)N[C@@H](C)C(N)=O)NC(=O)[C@H]([C@@H](C)O)NC(=O)[C@H](C(C)C)NC(=O)[C@H](CC2CCCCC2)NC(=O)[C@H](CCN)NC1=O` (stereo partly drawn) [Compound 1333] ({CH2CO}-[Dap][Phe(4-COOH)]DWV[Bip][Cit][ξOrn][dL][Dab][Cha]VTCA-NH2; thioether N-14) as the molecule, how does the pIC50 read?
Its pIC50 is 8.16.

How did the pIC50 turn out when `CCC(C)[C@@H]1NC(=O)[C@H](Cc2ccc(-c3ccccc3)cc2)NC(=O)[C@H](C(C)C)NC(=O)[C@H](Cc2cccc(C)c2)NC(=O)[C@H](CC(=O)O)NC(=O)[C@H](Cc2ccc(C(=O)O)cc2)NC(=O)[C@H](Cc2ccncc2)NC(=O)CSC[C@@H](C(=O)N[C@@H](CC(N)=O)C(N)=O)NC(=O)[C@H]([C@@H](C)O)NC(=O)[C@H](C(C)C)NC(=O)[C@H](CC2CCCCC2)NC(=O)[C@H](CCN)NC(=O)[C@@H](CC(C)C)NC(=O)[C@H](CCCN)NC1=O` (stereo partly drawn) [Compound 2299] was run?
Its pIC50 is 7.84.

With `CCC(C)[C@@H]1NC(=O)[C@H](Cc2ccc(-c3ccccc3)cc2)NC(=O)[C@H](C(C)C)NC(=O)[C@H](Cc2cccc(C)c2)NC(=O)[C@H](CC(=O)O)NC(=O)[C@H](Cc2ccc(C(=O)O)cc2)NC(=O)[C@H](CCCNC(=N)N)NC(=O)CSC[C@@H](C(=O)N[C@@H](C)C(N)=O)NC(=O)[C@H](C(C)O)NC(=O)[C@H](C(C)C)NC(=O)[C@H](CC2CCCCC2)NC(=O)[C@H](CCN)NC(=O)[C@@H](CC(C)C)NC(=O)[C@H](CCCN)NC1=O` (stereo partly drawn) [Compound 2538] as the molecule, how does the pIC50 read?
The pIC50 was 8.01.
